# According to ChEMBL document CHEMBL1147689, “Development of withaferin A analogs as probes of angiogenesis” (Bioorg Med Chem Lett, 2006):
# Active and inactive are the calls of the source. The rule behind the calls is not given here.
# Assays:
# Format in all cases: functional, cell-based
# Settings in all cases: Homo sapiens
# HUVEC [1] = experiment: Ability to block bFGF-induced vessel growth in the type 1 collagen matrix at 5 uM
# HUVEC [2] = experiment: Ability to block bFGF-induced vessel growth in the type 1 collagen matrix at 1 uM
# HUVEC [3] = experiment: Ability to block bFGF-induced vessel growth in the type 1 collagen matrix at 500 nM
# HUVEC [4] = experiment: Increase of ubiquitinated protein level in TNF-alpha-treated HUVEC at 5 uM
SMILES,Activity (HUVEC [1]),Activity (HUVEC [2]),Activity (HUVEC [3]),Activity (HUVEC [4])
CC1=C(CO)C(=O)OC([C@@H](C)C2CCC3C4C(CC[C@@]32C)[C@@]2(C)C(=O)C=CC[C@]2(O)[C@H]2O[C@@H]42)C1 (stereo not given in full),inactive,–,–,–
CC1=C(CO)C(=O)O[C@@H]([C@@H](C)[C@H]2CC[C@H]3[C@@H]4C[C@H]5O[C@]56[C@@H](O)C=CC(=O)[C@]6(C)[C@H]4CC[C@]23C)C1,–,Active,–,–
CC1=C(COC(=O)CNC(=O)CCCCCNC(=O)CCCCCNC(=O)CCCC[C@@H]2SCC3NC(=O)NC32)C(=O)OC([C@@H](C)C2CCC3C4C[C@H]5O[C@]56[C@@H](O)C=CC(=O)[C@]6(C)C4CC[C@@]32C)C1 (stereo not given in full),Active,–,inactive,Active
